Measured values reported in patent publication US10336761B2, “TGFβ receptor antagonist” (BRISTOL-MYERS SQUIBB COMPANY, priority 2015, dated 2019).

target: HIS-TGFβR1 T204D (Homo sapiens (Human), UniProt P36897, T204D); experiment: HTRF probe-displacement assay, HIS-TGFβR1 T204D; assay type: binding; conditions: 1 hour at room temperature
Sequence (P36897 34-503 T204D): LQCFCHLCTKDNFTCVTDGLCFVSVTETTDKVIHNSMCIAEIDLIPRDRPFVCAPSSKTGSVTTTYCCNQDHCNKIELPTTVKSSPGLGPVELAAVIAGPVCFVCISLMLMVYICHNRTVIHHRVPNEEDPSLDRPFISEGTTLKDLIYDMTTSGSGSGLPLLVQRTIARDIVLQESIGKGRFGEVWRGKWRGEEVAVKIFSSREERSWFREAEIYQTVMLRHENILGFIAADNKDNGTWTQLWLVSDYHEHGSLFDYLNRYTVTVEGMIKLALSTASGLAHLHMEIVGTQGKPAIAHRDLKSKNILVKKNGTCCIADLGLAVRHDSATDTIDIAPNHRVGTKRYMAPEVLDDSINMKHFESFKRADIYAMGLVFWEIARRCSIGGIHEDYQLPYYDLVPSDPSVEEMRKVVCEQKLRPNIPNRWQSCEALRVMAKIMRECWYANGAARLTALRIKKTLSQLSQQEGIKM

| Compound | IC50 [µM] |
| --- | --- |
| COc1cccc(-c2nc(Nc3ccnc(F)c3)c3c(C)ccn3n2)n1 [Example 96, 2-fluoro-N-[2-(6-methoxypyridin-2-yl)-5-methylpyrrolo[2,1-f][1,2,4]triazin-4-yl]pyridin-4-amine] | 0.65 |
| O=C(NC1CCC(F)(F)CC1)c1cnccc1Nc1nc(-c2cccc(C(F)F)n2)nn2cccc12 [Example 201, N-(4,4-difluorocyclohexyl)-4-({2-[6-(difluoromethyl)pyridin-2-yl]pyrrolo[2,1-f][1,2,4]triazin-4-yl}amino)pyridine-3-carboxamide] | 0.41 |
| COc1cccc(-c2nc(Nc3ccncc3COCCCN3CCOCC3)c3cccn3n2)n1 [Example 38, N-[2-(6-methoxypyridin-2-yl)pyrrolo[2,1-f][1,2,4]triazin-4-yl]-3-{[3-(morpholin-4-yl)propoxy]methyl}pyridin-4-amine] | 0.68 |
| Fc1cnccc1Nc1nc(-c2ccccn2)nn2ccc(CNCc3ccc4c(c3)OCO4)c12 [Example 294, N-(5-{[(2H-1,3-benzodioxol-5-ylmethyl)amino]methyl}-2-(pyridin-2-yl)pyrrolo[2,1-f][1,2,4]triazin-4-yl)-3-fluoropyridin-4-amine] | 0.0004 |
| CC1(NCc2ccn3nc(-c4ccccn4)nc(Nc4ccncc4F)c23)CCC1 [Example 241, 3-fluoro-N-(5-{[(1-methylcyclobutyl)amino]methyl}-2-(pyridin-2-yl)pyrrolo[2,1-f][1,2,4]triazin-4-yl)pyridin-4-amine] | 0.00027 |
| Fc1cnccc1Nc1nc(-c2ccccn2)nn2ccc(CNCC3CNCCO3)c12 (centres unmarked) [Example 299, 3-fluoro-N-(5-{[(morpholin-2-ylmethyl)amino]methyl}-2-(pyridin-2-yl)pyrrolo[2,1-f][1,2,4]triazin-4-yl)pyridin-4-amine] | 0.023 |
| FC(F)(F)c1cccc(-c2nc(Nc3ccncn3)c3cccn3n2)n1 [Example 255, N-{2-[6-(trifluoromethyl)pyridin-2-yl]pyrrolo[2,1-f][1,2,4]triazin-4-yl}pyrimidin-4-amine] | 0.028 |
| C=CCOc1cnccc1Nc1nc(-c2ccccn2)nn2cccc12 [Example 79, 3-(prop-2-en-1-yloxy)-N-[2-(pyridin-2-yl)pyrrolo[2,1-f][1,2,4]triazin-4-yl]pyridin-4-amine] | 0.013 |
| Fc1cnccc1Nc1nc(-c2ccccn2)nn2ccc(CN3CCC(F)(F)CC3)c12 [Example 27, N-{5-[(4,4-difluoropiperidin-1-yl)methyl]-2-(pyridin-2-yl)pyrrolo[2,1-f][1,2,4]triazin-4-yl}-3-fluoropyridin-4-amine] | 0.0013 |
| Fc1cnccc1Nc1nc(-c2ccccn2)nn2ccc(CNC3CNC3)c12 [Example 311, N-(5-{[(azetidin-3-yl)amino]methyl}-2-(pyridin-2-yl)pyrrolo[2,1-f][1,2,4]triazin-4-yl)-3-fluoropyridin-4-amine] | 0.013 |
| COc1cccc(-c2nc(Nc3ccncc3F)c3ccc(F)n3n2)n1 [Example 41, 3-fluoro-N-[7-fluoro-2-(6-methoxypyridin-2-yl)pyrrolo[2,1-f][1,2,4]triazin-4-yl]pyridin-4-amine] | 0.087 |
| Cc1cccc(-c2nc(Nc3ccncc3C(=O)NCCCO)c3cccn3n2)n1 [Example 159, N-(3-hydroxypropyl)-4-{[2-(6-methylpyridin-2-yl)pyrrolo[2,1-f][1,2,4]triazin-4-yl]amino}pyridine-3-carboxamide] | 0.0048 |
| Fc1cnccc1Nc1nc(-c2ccccn2)nn2ccc(CNCCC3CCCN3)c12 (centres unmarked) [Example 270, 3-fluoro-N-[2-(pyridin-2-yl)-5-({[2-(pyrrolidin-2-yl)ethyl]amino}methyl)pyrrolo[2,1-f][1,2,4]triazin-4-yl]pyridin-4-amine] | 0.0036 |
| COC(=O)Nc1cc(Nc2nc(-c3cccc(C(F)(F)F)n3)nn3cccc23)ccn1 [Example 312, Methyl N-[4-({2-[6-(trifluoromethyl)pyridin-2-yl]pyrrolo[2,1-f][1,2,4]triazin-4-yl}amino)pyridin-2-yl]carbamate] | 0.00087 |
| COc1cccc(-c2nc(Nc3ccncc3F)c3cc(CCCCN4CCN(C)CC4)cn3n2)n1 [Example 43, 3-fluoro-N-[2-(6-methoxypyridin-2-yl)-6-[4-(4-methylpiperazin-1-yl)butyl]pyrrolo[2,1-f][1,2,4]triazin-4-yl]pyridin-4-amine] | 2.2 |
| Fc1cnccc1Nc1nc(-c2ccc(C(F)(F)F)cn2)nn2cccc12 [Example 248, 3-fluoro-N-{2-[5-(trifluoromethyl)pyridin-2-yl]pyrrolo[2,1-f][1,2,4]triazin-4-yl}pyridin-4-amine] | 0.07 |
| Cc1nc(-c2nc(Nc3ccncc3)c3cccn3n2)ccc1F [Example 69, N-[2-(5-fluoro-6-methylpyridin-2-yl)pyrrolo[2,1-f][1,2,4]triazin-4-yl]pyridin-4-amine] | 0.0019 |
| COc1cccc(-c2nc(Nc3ccncc3F)c3cc(NC(C)=O)cn3n2)n1 [Example 104, N-{4-[(3-fluoropyridin-4-yl)amino]-2-(6-methoxypyridin-2-yl)pyrrolo[2,1-f][1,2,4]triazin-6-yl}acetamide] | 0.086 |
| COc1cccc(-c2nc(Nc3ccnc(NCCC(C)(C)O)c3)c3cccn3n2)n1 [Example 134, 4-[(4-{[2-(6-methoxypyridin-2-yl)pyrrolo[2,1-f][1,2,4]triazin-4-yl]amino}pyridin-2-yl)amino]-2-methylbutan-2-ol] | 0.36 |
| COc1cccc(-c2nc(Nc3ccncc3F)c3cc(CNCCCN4CCS(=O)(=O)CC4)cn3n2)n1 [Example 209, 4-{3-[({4-[(3-fluoropyridin-4-yl)amino]-2-(6-methoxypyridin-2-yl)pyrrolo[2,1-f][1,2,4]triazin-6-yl}methyl)amino]propyl}-1,4-thiomorpholine-1,1-dione] | 7.7 |
| O=C(NCCCN1CCCC1)c1cnccc1Nc1nc(-c2cccc(C(F)(F)F)n2)nn2cccc12 [Example 37] | 0.047 |
| COc1cccc(-c2nc(Nc3ccncc3N)c3cccn3n2)n1 [Example 95, 4-N-[2-(6-methoxypyridin-2-yl)pyrrolo[2,1-f][1,2,4]triazin-4-yl]pyridine-3,4-diamine] | 0.02 |
| CN1CCN(Cc2ccn3nc(-c4cccc(C(F)F)n4)nc(Nc4ccncc4F)c23)CC1 [Example 115, N-{2-[6-(difluoromethyl)pyridin-2-yl]-5-[(4-methylpiperazin-1-yl)methyl]pyrrolo[2,1-f][1,2,4]triazin-4-yl}-3-fluoropyridin-4-amine] | 0.0057 |
| Fc1ccc(-c2nc(Nc3cc(Cl)ncc3F)c3cccn3n2)nc1 [Example 317, 2-chloro-5-fluoro-N-[2-(5-fluoropyridin-2-yl)pyrrolo[2,1-f][1,2,4]triazin-4-yl]pyridin-4-amine] | 3 |
| Cc1cccc(-c2nc(Nc3ccncc3)c3cc(C(=O)NCCCN4CCCC4)cn3n2)n1 [Example 50, 2-(6-methylpyridin-2-yl)-4-[(pyridin-4-yl)amino]-N-[3-(pyrrolidin-1-yl)propyl]pyrrolo[2,1-f][1,2,4]triazine-6-carboxamide] | 0.076 |
| CC(C)(O)CNC(=O)c1cnccc1Nc1nc(-c2cccc(C(F)F)n2)nn2cccc12 [Example 188, 4-({2-[6-(difluoromethyl)pyridin-2-yl]pyrrolo[2,1-f][1,2,4]triazin-4-yl}amino)-N-(2-hydroxy-2-methylpropyl)pyridine-3-carboxamide] | 0.049 |
